In patent US8946426B2, “Substituted bicyclic heterocyclic compounds as gamma secretase modulators” (Janssen Pharmaceuticals, Inc., priority 2009, dated 2015):

Assays:
Assay type in all cases: cell-based
[1] = test system: Aβ42; experiment: Method 1: Aβ42 sandwich ELISA in supernatant of SKNBE2 cells carrying APP 695-wild type (Tables 7a, 7b)
Summary of the method: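 IC50 values were derived with a 4-parameter equation, fitting either percent inhibition or percent of compound-free Aβ42 as the control. The Aβ42 came from supernatants of APP695 wild-type SKNBE2 cells treated for 18 hours. It was measured by ELISA with anti-Aβ42 capture, biotinylated 3D6 and TMB absorbance at 450 nm.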

[2] = test system: Aβtotal; experiment: Method 1: Aβtotal sandwich ELISA in supernatant of SKNBE2 cells carrying APP 695-wild type (Tables 7a, 7b)
Method: (§1) Screening was carried out using SKNBE2 cells carrying the APP 695-wild type, grown in Dulbecco's Modified Eagle's Medium/Nutrient mixture F-12 (DMEM/NUT-mix F-12) (HAM) provided by Gibco (cat no. 31330-38) containing 5% Serum/Fe supplemented with 1% non-essential amino acids. Cells were grown to near confluency.
The screening was performed using the assay as described in Citron et al (1997) Nature Medicine 3: 67. Briefly, cells were plated in a 96-well plate at about 10^5 cells/ml one day prior to addition of compounds. Compounds were added to the cells in Ultraculture (Lonza, BE12-725F) supplemented with 1% glutamine (Invitrogen, 25030-024) for 18 Hours. The media were assayed by two sandwich ELISAs, for Aβ42 and Aβtotal. Toxicity of the compounds was assayed by WST-1 cell proliferation reagent (Roche, 1 644 807) according to the manufacturer's protocol.
To quantify the amount of Aβtotal in the cell supernatant, samples and standards were added to a 6E10-coated plate. The plate was allowed to incubate overnight at 4° C. in order to allow formation of the antibody-amyloid complex. Following this incubation and subsequent wash steps a selective anti-Aβ-antibody conjugate (biotinylated 4G8) was added and incubated for a minimum of 1 Hour in order to allow formation of the antibody-Amyloid-antibody-complex. After incubation and appropriate wash steps, a Streptavidine-Peroxidase-Conjugate was added, followed 30 minutes later by an addition of Quanta Blu fluorogenic peroxidase substrate according to the manufacturer's instructions (Pierce Corp., Rockford, Ill.).
To obtain the values reported in Table 7a, the sigmoidal dose response curves were analysed by computerised curve-fitting, with percent of inhibition plotted against compound concentration. A 4-parameter equation (model 205) in XLfit was used to determine the IC50. The top and the bottom of the curve were fixed to 100 and 0, respectively, and the hill slope was fixed to 1. The IC50 represents the concentration of a compound that is required for inhibiting a biological effect by 50% (Here, it is the concentration where Aβ peptide level is reduced by 50%).
(§2) To obtain the values reported in Table 7b, the data were calculated as percentage of the maximum amount of amyloid Beta 42 measured in the absence of the test compound. The sigmoidal dose response curves were analyzed using non-linear regression analysis with percentage of the control plotted against the log concentration of the compound. A 4-parameter equation was used to determine the IC50. The values reported in Table 7b are averaged IC50 values.

[3] = test system: Aβ42; experiment: Method 2: Aβ42 Alphalisa in supernatant of SKNBE2 cells carrying APP 695-wild type (Table 7c); conditions: Method 2, Alphalisa, overnight incubation
Method: as §1, with “Invitrogen” for “Gibco”, “10371-029)” for “31330-38)”, “acids, 1-glutamine 2 mM, Hepes 15 mM, penicillin 50 U/ml (units/ml) en streptomycin 50 μg/ml.” for “acids.”
(§3) The screening was performed using a modification of the assay as described in Citron et al (1997) Nature Medicine 3: 67. Briefly, cells were plated in a 384-well plate at 10^4 cells/well in Ultraculture (Lonza, BE12-725F) supplemented with 1% glutamine (Invitrogen, 25030-024), 1% non-essential amino acid (NEAA), penicillin 50 U/ml en streptomycin 50 μg/ml in the presence of test compound at different test concentrations. The cell/compound mixture was incubated overnight at 37° C., 5% CO2. The next day the media were assayed by two sandwich immuno-assays, for Aβ42 and Aβtotal.
(§4) Aβtotal and Aβ42 concentrations were quantified in the cell supernatant using the Aphalisa technology (Perkin Elmer). Alphalisa is a sandwich assay using biotinylated antibody attached to streptavidin coated donorbeads and antibody conjugated to acceptor beads. In the presence of antigen, the beads come into close proximity. The excitation of the donor beads provokes the release of singlet oxygen molecules that trigger a cascade of energy transfer in the acceptor beads, resulting in light emission. To quantify the amount of Aβ42 in the cell supernatant, monoclonal antibody specific to the C-terminus of Aβ42 (JRF/cAβ42/26) was coupled to the receptor beads and biotinylated antibody specific to the N-terminus of Aβ (JRF/AβN/25) was used to react with the donor beads. To quantify the amount of Aβtotal in the cell supernatant, monoclonal antibody specific to the N-terminus of Aβ (JRF/AβN/25) was coupled to the receptor beads and biotinylated antibody specific to the mid region of Aβ (biotinylated 4G8) was used to react with the donor beads.
as §2, with “7c,” for “7b,”, “IC50.” for “IC50. The values reported in Table 7b are averaged IC50 values.”

[4] = test system: Aβtotal; experiment: Method 2: Aβtotal Alphalisa in supernatant of SKNBE2 cells carrying APP 695-wild type (Table 7c); conditions: Method 2, Alphalisa, overnight incubation
Method: as §1, with “Invitrogen” for “Gibco”, “10371-029)” for “31330-38)”, “acids, 1-glutamine 2 mM, Hepes 15 mM, penicillin 50 U/ml (units/ml) en streptomycin 50 μg/ml.” for “acids.”
as §3, §4
as §2, with “7c,” for “7b,”, “IC50.” for “IC50. The values reported in Table 7b are averaged IC50 values.”

[5] = Table 7b, averaged IC50, non-linear regression of percentage of control vs log concentration, 4-parameter equation
[6] = Table 7a, SKNBE2 cells, compounds 18 h, XLfit 4-parameter fit of percent inhibition, top/bottom fixed to 100/0, hill slope 1

SMILES | IC50 [1, 5] | IC50 [2, 5] | IC50 [3] | IC50 [4] | IC50 [1, 6] | IC50 [2, 6]
Cc1ncc(-c2ccc(Nc3cccc4c3nc(C(C)c3ccc(Cl)cc3)n4C)cn2)o1 (racemic) [Compound 87] | 0.251 µM | > 10 µM | 0.288 µM | 9.12 µM |  | 
Cc1ncc(-c2ccc(Nc3nccc4c3nc(-c3ccc(F)cc3)n4C(C)C)cc2)o1 [Compound 26] | 0.871 µM | > 30 µM | 0.191 µM | > 10 µM |  | 
Cc1ncoc1-c1ccc(Nc2cccc3c2nc(-c2ccc(F)cc2)n3C)cn1 [Compound 35] | 0.089 µM |  | 0.214 µM | > 10 µM | 0.09 µM | > 3 µM
Cc1ncc(-c2ccc(Nc3cccn4c(C)c(-c5ccccc5Cl)nc34)cc2)o1 [Compound 49] | 0.02 µM | > 3 µM | 0.04 µM | > 10 µM | 0.021 µM | > 3 µM
Cc1ncc(-c2ccc(Nc3cccn4cc(-c5cc(C(F)(F)F)ccc5C)nc34)cc2)o1 [Compound 50] | 0.02 µM | > 3 µM | 0.072 µM | > 10 µM | 0.038 µM | > 3 µM
Cc1ncoc1-c1ccc(Nc2cccc3c2nc(-c2ccc(F)cc2)n3C(C)C)cc1F [Compound 65] | 0.083 µM | > 3 µM | 0.117 µM | > 10 µM |  | 
Cc1nc(C)c(-c2ccc(Nc3cc(F)cc4c3nc(-c3ccccc3Cl)n4C)cn2)o1 [Compound 79] | 0.028 µM | > 3 µM | 0.076 µM | > 10 µM |  | 
Cc1nc(C)c(-c2ccc(Nc3cccc4c3nc(-c3ccc(F)cc3)n4C(C)C)cn2)o1 [Compound 82] | 0.037 µM | > 3 µM | 0.049 µM | > 10 µM |  | 
Cc1ncc(-c2ccc(Nc3nccc4c3nc(-c3ccccc3Cl)n4C)cn2)o1 [Compound 85] | 0.066 µM | > 3 µM | 0.363 µM | > 10 µM |  | 
Cc1ncc(-c2ccc(Nc3cc(C#N)cc4c3nc(-c3ccc(F)cc3)n4C)cn2)o1 [Compound 86] | 0.019 µM | > 3 µM | 0.052 µM | > 10 µM |  | 
Cc1ncc(-c2ccc(Nc3cccc4c3nc(C3(c5ccc(Cl)cc5)CC3)n4C)cn2)o1 [Compound 88] | 0.066 µM | > 10 µM | 0.058 µM | 8.91 µM |  | 
Cc1ncc(-c2ccc(Nc3cc(F)cc4c3nc(-c3ccccc3Cl)n4C)cn2)o1 [Compound 107] | 0.018 µM | > 3 µM | 0.025 µM | > 10 µM |  | 
Cc1cc2c(nc(-c3cccc(Cl)c3)n2C)c(Nc2ccc(-c3ocnc3C)nc2)n1 [Compound 111] | 0.339 µM | > 10 µM | 0.204 µM | > 10 µM |  | 
COc1cc(Nc2cc(F)cn3cc(C4CCOCC4)nc23)ccc1-c1ocnc1C [Compound 163] | 0.245 µM | > 10 µM | 0.158 µM | > 10 µM |  | 
Cc1ncoc1-c1ccc(Nc2cccn3cc(CC4CCOCC4)nc23)cn1 [Compound 164] | 1.41 µM | 9.33 µM | 1.32 µM | 6.76 µM |  | 
Cc1ncc(-c2ccc(Nc3cccn4c(C)c(-c5ccccc5C(F)(F)F)nc34)cn2)o1 [Compound 167] | 0.021 µM | > 3 µM | 0.018 µM | > 10 µM |  | 
Cc1ncc(-c2ccc(Nc3cc(F)cn4cc(-c5ccc(F)cc5C)nc34)cn2)o1 [Compound 171] | 0.02 µM | > 3 µM | 0.038 µM | > 10 µM |  | 
Cc1cn2cccc(Nc3ccc(-c4cnc(C)o4)nc3)c2n1 [Compound 172] | 2.09 µM | > 3 µM | 0.661 µM | > 10 µM |  | 
Cc1ncc(-c2ccc(Nc3cccn4c(C)c(-c5ccccc5Cl)nc34)cn2)o1 [Compound 173] | 0.009 µM | > 3 µM | 0.007 µM | > 10 µM |  | 
COCCc1c(-c2ccc(F)cc2)nc2c(Nc3ccc(-c4cnc(C)o4)c(OC)c3)cccn12 [Compound 174] | 0.01 µM | > 3 µM | 0.022 µM | > 10 µM |  | 
COc1cc(Nc2cc(C(C)C)nc3c2nc(-c2ccc(F)cc2)n3C)ccc1-c1cnc(C)o1 [Compound 190] | 0.005 µM | > 3 µM | 0.01 µM | > 10 µM |  | 
COc1cc(Nc2cc(C#N)cn3cc(CC(C)C)nc23)ccc1-c1ocnc1C [Compound 202] | 0.135 µM | > 3 µM | 0.245 µM | 8.51 µM |  | 
